Test results taken from ChEMBL document CHEMBL5291721, “A preclinical secondary pharmacology resource illuminates target-adverse drug reaction associations of marketed drugs” (Nat Commun, 2023).

Legend:
[1] = target: T1, Muscarinic acetylcholine receptor M1 (Homo sapiens, UniProt P11229); assay type: functional, cell-based
T1 sequence (P11229 whole entry): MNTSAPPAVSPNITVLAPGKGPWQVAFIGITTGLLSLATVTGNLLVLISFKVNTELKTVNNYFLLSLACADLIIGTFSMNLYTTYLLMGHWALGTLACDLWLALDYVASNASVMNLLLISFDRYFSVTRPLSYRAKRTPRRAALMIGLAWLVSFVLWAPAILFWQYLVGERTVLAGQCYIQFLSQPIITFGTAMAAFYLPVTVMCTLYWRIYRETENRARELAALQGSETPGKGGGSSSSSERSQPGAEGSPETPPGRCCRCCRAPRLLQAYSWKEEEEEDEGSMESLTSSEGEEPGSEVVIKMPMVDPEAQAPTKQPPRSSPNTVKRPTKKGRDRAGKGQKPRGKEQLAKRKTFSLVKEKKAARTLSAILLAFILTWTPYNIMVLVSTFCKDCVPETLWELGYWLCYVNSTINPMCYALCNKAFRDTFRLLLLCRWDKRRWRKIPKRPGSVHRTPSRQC

[2] = target: T1, Muscarinic acetylcholine receptor M1; assay type: functional, cell-based; remark: listed apart in the source
Androgen receptor = target: T2, Androgen receptor (Rattus norvegicus, UniProt P15207); assay type: functional
T2 sequence (P15207 whole entry): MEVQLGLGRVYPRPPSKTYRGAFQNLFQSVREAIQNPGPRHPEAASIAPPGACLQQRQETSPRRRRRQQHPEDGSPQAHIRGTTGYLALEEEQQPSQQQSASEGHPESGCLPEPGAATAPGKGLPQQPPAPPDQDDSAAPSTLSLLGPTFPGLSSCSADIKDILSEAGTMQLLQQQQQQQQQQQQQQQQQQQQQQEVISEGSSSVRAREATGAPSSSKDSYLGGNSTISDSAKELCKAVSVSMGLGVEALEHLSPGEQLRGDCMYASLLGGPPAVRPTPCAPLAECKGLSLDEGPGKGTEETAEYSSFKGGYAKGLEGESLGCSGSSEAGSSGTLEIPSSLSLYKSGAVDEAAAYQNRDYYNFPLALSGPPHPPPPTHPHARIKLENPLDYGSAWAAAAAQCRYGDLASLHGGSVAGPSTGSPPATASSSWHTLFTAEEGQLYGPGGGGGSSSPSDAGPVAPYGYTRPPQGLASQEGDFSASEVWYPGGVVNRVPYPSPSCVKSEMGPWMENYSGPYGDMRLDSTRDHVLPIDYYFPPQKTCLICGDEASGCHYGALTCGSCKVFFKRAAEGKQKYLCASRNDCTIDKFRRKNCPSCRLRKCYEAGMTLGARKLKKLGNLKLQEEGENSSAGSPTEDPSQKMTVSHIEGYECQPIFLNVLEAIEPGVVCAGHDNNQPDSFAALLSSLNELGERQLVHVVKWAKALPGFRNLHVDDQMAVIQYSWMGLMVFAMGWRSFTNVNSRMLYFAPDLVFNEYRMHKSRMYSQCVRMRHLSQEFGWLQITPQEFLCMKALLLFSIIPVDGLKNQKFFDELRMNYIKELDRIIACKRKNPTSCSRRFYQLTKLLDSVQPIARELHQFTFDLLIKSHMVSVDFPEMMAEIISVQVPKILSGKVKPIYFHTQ

[3] = target: Voltage-dependent L-type calcium channel subunit alpha-1C (Homo sapiens, UniProt Q13936); assay type: functional, cell-based
Chain of Voltage-dependent L-type calcium channel subunit alpha-1C (Q13936 whole entry): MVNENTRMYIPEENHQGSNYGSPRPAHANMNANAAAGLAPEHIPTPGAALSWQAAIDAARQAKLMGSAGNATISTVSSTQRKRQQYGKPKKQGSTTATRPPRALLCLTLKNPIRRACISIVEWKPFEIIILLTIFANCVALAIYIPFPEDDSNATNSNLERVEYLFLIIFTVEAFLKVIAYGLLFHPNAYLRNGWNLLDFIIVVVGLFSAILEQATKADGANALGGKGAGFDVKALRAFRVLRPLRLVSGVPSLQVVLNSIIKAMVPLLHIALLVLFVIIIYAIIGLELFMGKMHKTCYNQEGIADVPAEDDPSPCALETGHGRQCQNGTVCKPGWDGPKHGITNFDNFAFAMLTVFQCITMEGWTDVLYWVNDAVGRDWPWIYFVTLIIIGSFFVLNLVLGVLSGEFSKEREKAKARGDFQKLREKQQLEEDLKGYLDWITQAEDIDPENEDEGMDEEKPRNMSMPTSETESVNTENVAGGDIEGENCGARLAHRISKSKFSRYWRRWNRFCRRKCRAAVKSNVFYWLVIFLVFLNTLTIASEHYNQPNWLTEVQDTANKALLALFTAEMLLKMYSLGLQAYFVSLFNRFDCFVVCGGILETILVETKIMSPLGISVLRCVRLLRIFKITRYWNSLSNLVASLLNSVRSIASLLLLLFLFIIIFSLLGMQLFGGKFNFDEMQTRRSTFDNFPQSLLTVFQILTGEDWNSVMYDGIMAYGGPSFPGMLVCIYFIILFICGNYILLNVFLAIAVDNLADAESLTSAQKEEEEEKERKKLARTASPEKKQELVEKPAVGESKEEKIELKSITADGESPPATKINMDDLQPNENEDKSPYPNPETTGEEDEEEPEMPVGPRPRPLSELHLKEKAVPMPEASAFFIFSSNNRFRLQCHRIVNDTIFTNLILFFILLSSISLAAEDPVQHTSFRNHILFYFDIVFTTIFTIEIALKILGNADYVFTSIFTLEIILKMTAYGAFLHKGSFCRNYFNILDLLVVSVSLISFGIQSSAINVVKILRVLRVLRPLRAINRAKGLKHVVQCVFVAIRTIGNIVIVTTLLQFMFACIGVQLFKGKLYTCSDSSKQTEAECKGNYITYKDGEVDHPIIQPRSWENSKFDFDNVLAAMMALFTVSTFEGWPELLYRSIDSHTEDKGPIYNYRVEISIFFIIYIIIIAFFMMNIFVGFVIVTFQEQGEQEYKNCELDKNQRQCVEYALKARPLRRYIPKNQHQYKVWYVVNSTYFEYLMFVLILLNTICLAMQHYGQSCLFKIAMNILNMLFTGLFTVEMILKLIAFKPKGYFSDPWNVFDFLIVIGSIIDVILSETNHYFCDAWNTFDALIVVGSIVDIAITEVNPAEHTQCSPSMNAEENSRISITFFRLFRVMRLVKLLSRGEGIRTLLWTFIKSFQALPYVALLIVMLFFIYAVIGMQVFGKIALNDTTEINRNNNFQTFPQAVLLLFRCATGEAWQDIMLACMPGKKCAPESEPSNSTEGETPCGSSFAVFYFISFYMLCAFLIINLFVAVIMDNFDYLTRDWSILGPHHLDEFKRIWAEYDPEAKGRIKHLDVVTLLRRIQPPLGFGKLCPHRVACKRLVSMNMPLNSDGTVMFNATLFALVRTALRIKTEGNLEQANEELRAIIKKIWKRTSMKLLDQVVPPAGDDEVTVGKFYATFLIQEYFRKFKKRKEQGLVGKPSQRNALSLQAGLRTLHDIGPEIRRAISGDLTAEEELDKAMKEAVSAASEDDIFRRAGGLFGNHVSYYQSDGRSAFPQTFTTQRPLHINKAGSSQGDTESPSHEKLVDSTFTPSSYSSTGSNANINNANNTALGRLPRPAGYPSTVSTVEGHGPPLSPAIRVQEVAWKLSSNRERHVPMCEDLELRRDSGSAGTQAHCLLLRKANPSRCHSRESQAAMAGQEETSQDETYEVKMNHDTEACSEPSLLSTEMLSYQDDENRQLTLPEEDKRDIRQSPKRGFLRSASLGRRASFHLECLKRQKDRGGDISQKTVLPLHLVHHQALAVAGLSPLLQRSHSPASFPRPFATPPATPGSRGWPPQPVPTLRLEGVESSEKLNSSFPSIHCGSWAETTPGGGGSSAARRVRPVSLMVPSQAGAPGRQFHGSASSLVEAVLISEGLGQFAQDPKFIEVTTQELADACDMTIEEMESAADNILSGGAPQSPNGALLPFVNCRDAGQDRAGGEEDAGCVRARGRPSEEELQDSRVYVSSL

[4] = target: Sodium channel protein type 5 subunit alpha (Homo sapiens, UniProt Q14524); assay type: functional, cell-based
[5] = target: Synaptic vesicular amine transporter (Rattus norvegicus, UniProt Q01827); assay type: functional
Chain of Synaptic vesicular amine transporter (Q01827 whole entry): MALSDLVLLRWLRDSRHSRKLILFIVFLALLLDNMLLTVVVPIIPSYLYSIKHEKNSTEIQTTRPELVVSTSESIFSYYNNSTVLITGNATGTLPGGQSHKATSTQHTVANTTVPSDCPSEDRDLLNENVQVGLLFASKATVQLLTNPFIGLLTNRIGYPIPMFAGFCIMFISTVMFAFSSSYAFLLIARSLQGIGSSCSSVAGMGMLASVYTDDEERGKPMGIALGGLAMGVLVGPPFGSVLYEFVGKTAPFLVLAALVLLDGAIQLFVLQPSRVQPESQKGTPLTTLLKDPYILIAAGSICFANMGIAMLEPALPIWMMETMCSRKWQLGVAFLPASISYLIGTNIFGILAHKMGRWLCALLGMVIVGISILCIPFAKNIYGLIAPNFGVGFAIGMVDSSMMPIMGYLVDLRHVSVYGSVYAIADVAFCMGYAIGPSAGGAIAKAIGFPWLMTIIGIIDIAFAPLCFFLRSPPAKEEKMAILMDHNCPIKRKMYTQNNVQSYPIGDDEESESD

[6] = target: T3, Muscarinic acetylcholine receptor M5 (Homo sapiens, UniProt P08912)
T3 sequence (P08912 whole entry): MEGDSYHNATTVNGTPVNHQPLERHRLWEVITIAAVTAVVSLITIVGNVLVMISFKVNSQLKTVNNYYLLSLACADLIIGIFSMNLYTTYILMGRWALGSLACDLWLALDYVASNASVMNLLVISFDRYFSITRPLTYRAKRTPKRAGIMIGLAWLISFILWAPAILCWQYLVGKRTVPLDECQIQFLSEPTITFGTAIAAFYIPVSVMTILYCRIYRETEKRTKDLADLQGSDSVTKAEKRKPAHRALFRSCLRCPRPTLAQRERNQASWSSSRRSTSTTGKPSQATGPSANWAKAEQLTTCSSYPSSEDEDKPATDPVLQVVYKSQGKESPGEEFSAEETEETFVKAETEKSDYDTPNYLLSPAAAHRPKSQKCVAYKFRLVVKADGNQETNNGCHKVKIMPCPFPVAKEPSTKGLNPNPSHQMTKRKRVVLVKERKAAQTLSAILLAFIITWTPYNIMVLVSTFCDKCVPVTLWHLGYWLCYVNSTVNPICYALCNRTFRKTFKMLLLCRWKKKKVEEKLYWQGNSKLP

D(1B) dopamine receptor = D(1B) dopamine receptor (Homo sapiens, UniProt P21918)
Chain of D(1B) dopamine receptor (P21918 whole entry): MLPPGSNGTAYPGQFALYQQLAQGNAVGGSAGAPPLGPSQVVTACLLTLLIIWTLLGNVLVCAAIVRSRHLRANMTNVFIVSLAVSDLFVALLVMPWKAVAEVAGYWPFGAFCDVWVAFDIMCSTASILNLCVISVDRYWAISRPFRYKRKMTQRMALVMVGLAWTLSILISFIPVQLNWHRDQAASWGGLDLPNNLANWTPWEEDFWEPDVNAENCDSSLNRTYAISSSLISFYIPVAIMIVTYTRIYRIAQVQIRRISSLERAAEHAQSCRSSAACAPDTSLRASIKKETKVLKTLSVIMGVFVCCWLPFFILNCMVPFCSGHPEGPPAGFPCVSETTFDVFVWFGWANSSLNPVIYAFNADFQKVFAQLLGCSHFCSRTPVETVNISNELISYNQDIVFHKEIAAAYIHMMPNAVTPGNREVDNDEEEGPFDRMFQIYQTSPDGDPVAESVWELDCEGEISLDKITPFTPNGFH

Substance-K receptor = target: T4, Substance-K receptor (Homo sapiens, UniProt P21452)
T4 sequence (P21452 whole entry): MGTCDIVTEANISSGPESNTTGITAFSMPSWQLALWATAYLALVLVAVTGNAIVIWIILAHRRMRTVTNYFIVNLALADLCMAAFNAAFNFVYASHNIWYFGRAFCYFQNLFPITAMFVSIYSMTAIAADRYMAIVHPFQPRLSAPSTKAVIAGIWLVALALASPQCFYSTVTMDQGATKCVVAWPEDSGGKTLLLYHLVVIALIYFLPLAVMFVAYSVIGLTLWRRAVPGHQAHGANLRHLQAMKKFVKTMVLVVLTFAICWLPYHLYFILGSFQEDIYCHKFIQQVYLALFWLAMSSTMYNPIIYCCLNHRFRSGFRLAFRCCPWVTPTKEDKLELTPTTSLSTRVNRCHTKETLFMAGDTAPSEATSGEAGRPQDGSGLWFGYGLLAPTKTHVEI

Thromboxane A2 receptor = target: T5, Thromboxane A2 receptor (Homo sapiens, UniProt P21731); assay type: functional, cell-based
T5 sequence (P21731 whole entry): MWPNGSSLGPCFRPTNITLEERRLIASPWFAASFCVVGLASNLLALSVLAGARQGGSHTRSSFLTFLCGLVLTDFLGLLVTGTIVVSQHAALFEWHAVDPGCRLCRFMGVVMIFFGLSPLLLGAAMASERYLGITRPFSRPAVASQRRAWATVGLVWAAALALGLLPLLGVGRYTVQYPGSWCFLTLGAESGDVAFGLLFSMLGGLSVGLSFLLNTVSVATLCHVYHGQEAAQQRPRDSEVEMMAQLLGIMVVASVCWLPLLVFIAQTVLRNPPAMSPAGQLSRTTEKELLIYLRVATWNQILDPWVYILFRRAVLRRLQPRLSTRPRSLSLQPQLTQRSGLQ
Further: assay procedure not described here.

Question: For `NC1CCN(c2c(F)cc3c(=O)c(C(=O)O)cn(C4CC4)c3c2Cl)C1` (stereo not given) [CLINAFLOXACIN], which AC50 [1] is on record?
Answer: > 300 µM

Question: What about the AC50 [2] of the same molecule?
Answer: 40 µM

Question: Which AC50 (Androgen receptor) does the source give for `CN(C)CC/C=C1\c2ccccc2CSc2ccccc21` [DOTHIEPIN] here?
Answer: > 30 µM

Question: For `CC[C@@H](C(N)=O)N1CCCC1=O`, which AC50 [3] is on record?
Answer: > 50 µM

Question: What about the AC50 [4] of the same molecule?
Answer: > 50 µM

Question: And the AC50 [5]?
Answer: > 30 µM

Question: `CCOc1ccccc1OCC1CNCCO1` (stereo not given) [VILOXAZINE] was tested. Which AC50 [6] did it give?
Answer: > 10 µM

Question: What about the AC50 (D(1B) dopamine receptor) of the same molecule?
Answer: > 10 µM

Question: And the AC50 (Substance-K receptor)?
Answer: > 10 µM

Question: And the AC50 (Thromboxane A2 receptor)?
Answer: > 30 µM
